This note sets out measurements from ChEMBL document CHEMBL2146358, “Discovery of amide based fibrates as possible antidyslipidemic and antioxidant agents” (2012).

Common to all, as to assay type: functional
Test [1] concerns Rattus norvegicus. In words: Antidyslipidemic activity in Triton fed hyperlipidemic Charles Foster rat assessed as increase in post heparin lipoprotein lipase activity by measuring free fatty acids formation rate per ml of plasma at 100 mg/kg, po.
Test [2] deals with Rattus norvegicus. In words: Antidyslipidemic activity in Triton fed hyperlipidemic Charles Foster rat assessed as reduction in plasma phospholipids at 100 mg/kg, po. On the set-up: scale not given: the % may be the effect or the level left.
Test [3] concerns Rattus norvegicus. In words: Antidyslipidemic activity in Triton fed hyperlipidemic Charles Foster rat assessed as reduction in plasma total cholesterol at 100 mg/kg, po. Further details: scale not given: the % may be the effect or the level left.
The species entered for test [4] is Rattus norvegicus. In words: Increase in lipoprotein lipase activity in Triton fed hyperlipidemic Charles Foster rat plasma assessed as free fatty acids formation rate per ml of plasma relative to untreated Triton control. Further details: concentration or dose not given beside the values.
For test [5], the system named is Rattus norvegicus. In words: Antidyslipidemic activity in Triton fed hyperlipidemic Charles Foster rat assessed as reduction in plasma triglyceride level at 100 mg/kg, po. Further details: scale not given: the % may be the effect or the level left.
A short description of test [6]: Antioxidant activity assessed as inhibition of superoxide anion radical generation at 200 ug/ml by spectrophotometry.
Test [7] is described as follows: Antioxidant activity assessed as inhibition of hydroxyl radical generation at 200 ug/ml by spectrophotometry.
Test [8] can be described thus: Antioxidant activity in microsomes assessed as inhibition of lipid peroxidation by measuring MDA level at 200 ug/ml by spectrophotometry based TBARS method.

Regarding `Cc1ccc(C)c(OCCCC(C)(C)C(=O)O)c1` [GEMFIBROZIL], the Activity in the test on Rattus norvegicus [1] turned out to be 31%; with Rattus norvegicus [2] it was 33%; with Rattus norvegicus [3], 31%; in the test listed under Rattus norvegicus [4], 30%; in the test with Rattus norvegicus [5], 33%.
The inhibition is the percentage by which the read-out fell short of the control. Consider `Oc1ncnc2[nH]ncc12`, for which the inhibition in test [6] stood at 41%.
On to `CCOC(=O)CCCOc1ccc(NC(=O)COc2ccccc2Cl)cc1`, for which the Activity in the test on Rattus norvegicus [1] amounted to 12%; in the test on Rattus norvegicus [2] it was 6%; in the test with Rattus norvegicus [3], 9%; in the test on Rattus norvegicus [5] it was 8%.
Regarding `CCOC(=O)C(CC)Oc1ccc(NC(=O)COc2ccccc2C(C)CC)cc1` (stereo not drawn), the Activity with Rattus norvegicus [1] came to 5%; with Rattus norvegicus [2], 9%; in the test with Rattus norvegicus [3], 10%; with Rattus norvegicus [5], 9%.
Consider `OC[C@@H](O)[C@@H](O)[C@H](O)[C@H](O)CO`, for which the inhibition in test [7] was found to be 41%.
As for `CCOC(=O)COc1ccc(NC(=O)COc2ccccc2Cl)cc1`, the Activity is recorded as 9% in the test with Rattus norvegicus [1], 9% in the test on Rattus norvegicus [2], 6% in the test on Rattus norvegicus [3] and 6% in the test with Rattus norvegicus [5].
As to `CCOC(=O)C(CC)Oc1ccc(NC(=O)CSc2ccc3ccccc3c2)cc1` (stereo not drawn), the Activity in the test on Rattus norvegicus [1] is on record as 7%; in the test on Rattus norvegicus [2], 4%; in the test with Rattus norvegicus [3], 6%; in the test on Rattus norvegicus [5] it was 5%.
For `CCOC(=O)CCCOc1ccc(NC(=O)COc2ccc3ccccc3c2)cc1`, the inhibition in test [8] is 29%; in test [6], 27%; in test [7], 25%. Moreover, the Activity amounted to 17% in the test with Rattus norvegicus [1], 19% with Rattus norvegicus [2], 21% with Rattus norvegicus [3] and 22% in the test on Rattus norvegicus [5].
In the case of `CCOC(=O)CCCOc1ccc(NC(=O)COc2ccc(Cl)cc2Cl)cc1`, the Activity came to 12% in the test with Rattus norvegicus [1], 8% in the test with Rattus norvegicus [2], 9% with Rattus norvegicus [3] and 7% in the test with Rattus norvegicus [5].
For the compound `CCOC(=O)C(C)(C)Oc1ccc(NC(=O)COc2ccc3ccccc3c2)cc1`, the inhibition in test [8] is 22%; in test [6], 30%; in test [7] it was 22%. Moreover, the Activity with Rattus norvegicus [1] was 23%; with Rattus norvegicus [2], 24%; in the test on Rattus norvegicus [3] it was 25%; in the test filed under Rattus norvegicus [4], 22%; in the test with Rattus norvegicus [5], 27%.
As to `CCOC(=O)C(CC)Oc1ccc(NC(=O)COc2ccc3ccccc3c2)cc1` (stereo not drawn), the Activity is 12% with Rattus norvegicus [1], 9% in the test on Rattus norvegicus [2], 12% in the test with Rattus norvegicus [3] and 13% in the test on Rattus norvegicus [5].
Consider `CCOC(=O)C(C)Oc1ccc(NC(=O)COc2ccccc2C(C)CC)cc1` (stereo not drawn), for which the inhibition in test [8], in test [6] and in test [7] was 25% throughout. The Activity was found to be 15% with Rattus norvegicus [1]; 23% in the test on Rattus norvegicus [2]; 24% with Rattus norvegicus [3]; 16% in the test listed under Rattus norvegicus [4]; 24% with Rattus norvegicus [5].
`Cc1c(C)c2c(c(C)c1O)CC[C@@](C)(CCC[C@H](C)CCC[C@H](C)CCCC(C)C)O2`: the inhibition in test [8] was 49%.
On to `CCOC(=O)C(C)(C)Oc1ccc(NC(=O)COc2ccccc2C(C)CC)cc1` (stereo not drawn), for which the Activity worked out at 14% in the test with Rattus norvegicus [1], 10% in the test on Rattus norvegicus [2], 7% in the test on Rattus norvegicus [3] and 6% with Rattus norvegicus [5].
As to `CCOC(=O)C(C)Oc1ccc(NC(=O)COc2ccc3ccccc3c2)cc1` (stereo not drawn), the inhibition in test [8] was 22%; in test [6], 25%; in test [7], 25%. For the same compound, the Activity in the test on Rattus norvegicus [1] stood at 26%; with Rattus norvegicus [2], 25%; in the test with Rattus norvegicus [3] it was 23%; in the test listed under Rattus norvegicus [4], 24%; in the test with Rattus norvegicus [5] it was 26%.
Turning to `CCOC(=O)C(C)Oc1ccc(NC(=O)CSc2ccc3ccccc3c2)cc1` (stereo not drawn), the inhibition in test [8] is 35%; in test [6], 31%; in test [7], 28%. The Activity was 24% with Rattus norvegicus [1]; 24% with Rattus norvegicus [2]; 26% with Rattus norvegicus [3]; 26% in the test filed under Rattus norvegicus [4]; 28% in the test with Rattus norvegicus [5].
Take `CCOC(=O)C(C)Oc1ccc(NC(=O)COc2ccc(Cl)cc2Cl)cc1` (stereo not drawn): the Activity in the test with Rattus norvegicus [1] is 10%; in the test on Rattus norvegicus [2] it was 7%; with Rattus norvegicus [3], 8%; in the test with Rattus norvegicus [5], 10%.
Consider `CCOC(=O)C(C)(C)Oc1ccc(NC(=O)COc2ccc(Cl)cc2Cl)cc1`, for which the Activity with Rattus norvegicus [1] was 9%; with Rattus norvegicus [2] it was 4%; in the test on Rattus norvegicus [3] it was 8%; in the test with Rattus norvegicus [5], 13%.
For `CCOC(=O)C(CC)Oc1ccc(NC(=O)COc2ccc(Cl)cc2Cl)cc1` (stereo not drawn), the Activity stood at 4% with Rattus norvegicus [1], 3% in the test on Rattus norvegicus [2], 2% in the test with Rattus norvegicus [3] and 5% in the test on Rattus norvegicus [5].
As for `CCOC(=O)C(C)Oc1ccc(NC(=O)COc2ccccc2Cl)cc1` (stereo not drawn), the inhibition in test [8] stood at 26%; in test [6], 33%; in test [7], 26%. In addition, the Activity with Rattus norvegicus [1] is on record as 23%; in the test with Rattus norvegicus [2], 26%; with Rattus norvegicus [3] it was 25%; in the test listed under Rattus norvegicus [4], 21%; in the test on Rattus norvegicus [5], 25%.
In the case of `CCOC(=O)CCCOc1ccc(NC(=O)COc2ccccc2C(C)CC)cc1` (stereo not drawn), the Activity with Rattus norvegicus [1] is recorded as 13%; in the test on Rattus norvegicus [2] it was 10%; with Rattus norvegicus [3] it was 9%; with Rattus norvegicus [5], 11%.
For `CCOC(=O)COc1ccc(NC(=O)COc2ccc3ccccc3c2)cc1`, the Activity was 15% with Rattus norvegicus [1], 14% with Rattus norvegicus [2], 14% in the test on Rattus norvegicus [3] and 11% in the test on Rattus norvegicus [5].
